This is an account of results in PubChem BioAssay AID1584 (NINDS Approved Drug Screening Program, 2009).

Results filed as inconclusive are left out.

Chain of Huntingtin (Homo sapiens) (P42858 whole entry, looked up): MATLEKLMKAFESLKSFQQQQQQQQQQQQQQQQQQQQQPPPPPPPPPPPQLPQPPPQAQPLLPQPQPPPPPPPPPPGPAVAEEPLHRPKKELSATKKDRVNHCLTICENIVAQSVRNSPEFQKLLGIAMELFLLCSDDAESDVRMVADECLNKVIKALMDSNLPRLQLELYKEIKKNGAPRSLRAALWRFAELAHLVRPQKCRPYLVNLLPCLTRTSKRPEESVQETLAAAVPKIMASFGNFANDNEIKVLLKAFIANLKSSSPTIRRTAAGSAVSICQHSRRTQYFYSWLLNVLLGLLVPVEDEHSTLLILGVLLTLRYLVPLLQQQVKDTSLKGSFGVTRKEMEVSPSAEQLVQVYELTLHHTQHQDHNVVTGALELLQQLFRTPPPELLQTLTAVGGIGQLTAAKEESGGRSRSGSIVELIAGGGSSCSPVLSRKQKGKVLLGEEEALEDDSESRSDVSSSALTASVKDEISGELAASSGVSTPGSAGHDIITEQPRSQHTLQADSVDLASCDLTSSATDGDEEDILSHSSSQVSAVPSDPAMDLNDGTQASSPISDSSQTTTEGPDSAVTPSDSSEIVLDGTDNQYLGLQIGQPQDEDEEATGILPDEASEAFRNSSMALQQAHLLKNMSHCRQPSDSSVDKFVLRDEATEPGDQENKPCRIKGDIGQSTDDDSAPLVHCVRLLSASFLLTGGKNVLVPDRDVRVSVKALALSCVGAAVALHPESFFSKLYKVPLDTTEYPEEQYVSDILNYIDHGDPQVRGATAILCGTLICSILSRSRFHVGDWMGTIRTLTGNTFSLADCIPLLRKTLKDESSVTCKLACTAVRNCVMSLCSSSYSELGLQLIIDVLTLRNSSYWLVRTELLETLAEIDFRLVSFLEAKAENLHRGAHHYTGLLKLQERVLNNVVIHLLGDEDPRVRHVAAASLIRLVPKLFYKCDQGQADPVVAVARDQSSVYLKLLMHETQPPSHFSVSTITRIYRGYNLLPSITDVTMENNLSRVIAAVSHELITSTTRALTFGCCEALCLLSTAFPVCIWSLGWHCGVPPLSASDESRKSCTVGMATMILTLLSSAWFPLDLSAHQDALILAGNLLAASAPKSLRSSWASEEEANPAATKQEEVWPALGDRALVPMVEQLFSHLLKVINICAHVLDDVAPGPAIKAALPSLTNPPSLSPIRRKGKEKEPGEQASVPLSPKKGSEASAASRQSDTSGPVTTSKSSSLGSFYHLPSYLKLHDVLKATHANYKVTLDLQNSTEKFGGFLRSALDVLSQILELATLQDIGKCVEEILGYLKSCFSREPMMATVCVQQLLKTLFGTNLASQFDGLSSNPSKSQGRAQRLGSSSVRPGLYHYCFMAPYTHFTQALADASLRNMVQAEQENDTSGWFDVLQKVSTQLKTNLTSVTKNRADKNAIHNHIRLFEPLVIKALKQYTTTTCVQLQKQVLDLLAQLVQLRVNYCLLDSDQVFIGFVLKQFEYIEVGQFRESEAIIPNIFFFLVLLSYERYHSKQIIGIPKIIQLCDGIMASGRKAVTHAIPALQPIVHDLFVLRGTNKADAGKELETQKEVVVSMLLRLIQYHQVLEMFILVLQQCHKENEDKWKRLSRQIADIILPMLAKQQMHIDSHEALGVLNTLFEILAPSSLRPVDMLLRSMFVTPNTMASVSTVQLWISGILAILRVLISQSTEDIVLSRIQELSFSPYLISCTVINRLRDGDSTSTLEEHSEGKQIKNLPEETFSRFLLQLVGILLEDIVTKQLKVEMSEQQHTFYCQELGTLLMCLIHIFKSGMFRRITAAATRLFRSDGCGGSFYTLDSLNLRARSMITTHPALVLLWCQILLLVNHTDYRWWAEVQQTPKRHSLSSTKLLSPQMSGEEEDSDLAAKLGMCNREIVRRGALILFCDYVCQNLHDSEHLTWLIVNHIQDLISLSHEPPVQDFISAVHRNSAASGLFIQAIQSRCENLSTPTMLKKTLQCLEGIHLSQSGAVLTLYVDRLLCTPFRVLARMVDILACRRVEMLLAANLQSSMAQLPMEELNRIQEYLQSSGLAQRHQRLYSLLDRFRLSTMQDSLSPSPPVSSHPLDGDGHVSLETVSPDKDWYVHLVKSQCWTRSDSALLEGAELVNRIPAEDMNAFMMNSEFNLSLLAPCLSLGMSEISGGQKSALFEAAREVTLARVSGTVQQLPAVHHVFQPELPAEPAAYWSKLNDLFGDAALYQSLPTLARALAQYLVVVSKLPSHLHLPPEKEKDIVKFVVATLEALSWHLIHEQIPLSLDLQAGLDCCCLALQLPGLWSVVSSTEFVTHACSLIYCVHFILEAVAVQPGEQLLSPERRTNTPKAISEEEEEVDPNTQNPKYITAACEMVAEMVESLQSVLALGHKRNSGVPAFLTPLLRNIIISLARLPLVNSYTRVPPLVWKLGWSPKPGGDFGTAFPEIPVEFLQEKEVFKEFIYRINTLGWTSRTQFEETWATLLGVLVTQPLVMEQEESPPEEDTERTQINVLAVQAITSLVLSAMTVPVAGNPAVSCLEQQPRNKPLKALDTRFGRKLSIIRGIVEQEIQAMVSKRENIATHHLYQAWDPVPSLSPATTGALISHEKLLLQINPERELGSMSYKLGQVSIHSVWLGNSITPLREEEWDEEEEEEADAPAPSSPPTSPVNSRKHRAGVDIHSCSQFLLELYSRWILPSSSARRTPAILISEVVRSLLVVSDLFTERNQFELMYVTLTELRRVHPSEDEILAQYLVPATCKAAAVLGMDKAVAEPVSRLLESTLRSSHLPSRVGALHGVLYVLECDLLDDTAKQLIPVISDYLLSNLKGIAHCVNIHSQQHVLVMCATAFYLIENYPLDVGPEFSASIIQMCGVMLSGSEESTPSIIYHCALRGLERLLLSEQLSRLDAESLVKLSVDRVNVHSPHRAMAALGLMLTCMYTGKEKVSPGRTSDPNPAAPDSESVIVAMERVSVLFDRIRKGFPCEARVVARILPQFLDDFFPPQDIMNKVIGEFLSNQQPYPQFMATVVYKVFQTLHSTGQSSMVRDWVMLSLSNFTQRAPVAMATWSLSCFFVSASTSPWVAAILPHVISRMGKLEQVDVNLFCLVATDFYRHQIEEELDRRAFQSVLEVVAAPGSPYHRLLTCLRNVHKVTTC

This experiment addresses Huntingtin (Homo sapiens) (UniProt P42858). In words: inhibitors of mutant Htt aggregation in vitro, dose response, QA1 (AID 1584). Conditions: in vitro mutant huntingtin aggregation assay.
Consider `Cc1cc2c(C(C)C)c(O)c(O)c(C=O)c2c(O)c1-c1c(C)cc2c(C(C)C)c(O)c(O)c(C=O)c2c1O`, for which the EC50 was 0.65 µM. The value for `O=c1c(O)c(-c2ccc(O)cc2O)oc2cc(O)cc(O)c12` was 17 µM; that for `O=C1c2c(O)cccc2Cc2cccc(O)c21` was 10.5 µM; that for `C=C1c2c(Cl)ccc(O)c2C(O)=C2C(=O)[C@]3(O)C(O)=C(C(N)=O)C(=O)[C@@H](N(C)C)[C@@H]3[C@@H](O)[C@H]12` was 14.8 µM. To `C[C@@]1(C(=O)O)CC[C@]2(C)CC[C@]3(C)C4=CC=C5C=C(O)C(=O)C=C5[C@]4(C)CC[C@@]3(C)[C@@H]2C1` belongs 3.55 µM. To `O=C1C=CC(=O)c2c(O)cccc21` belongs 2.67 µM; to `C[n+]1cc2c3c(ccc2c2ccc4cc5c(cc4c21)OCO5)OCO3`, 5.7 µM; to `C=Cc1c(C)c2cc3[nH]c(cc4nc(cc5nc(cc1[nH]2)C(C)=C5CCC(=O)O)C(CCC(=O)O)=C4C)c(C)c3C=C`, 19.7 µM. For the molecule `Cc1cc(/C=C/c2ccc3cc(N(C)C)ccc3[n+]2C)c(C)n1-c1ccccc1`, the EC50 was 21.7 µM. To `CC(C)=CCCC1(C)C=Cc2c(O)c3c(c(CC=C(C)C)c2O1)OC12C(=CC4CC1C(C)(C)OC2(C/C=C(/C)C(=O)O)C4=O)C3=O` (stereo not given) belongs 0.87 µM.
